Assay results published in patent publication US5210193A, “Piperazine derivatives” (American Cyanamid Company, priority 1990, dated 1993).
In brackets after ≈: the same amount, converted by molar mass. Like-named read-outs stand apart in the source and are kept apart here.

Key:
Assay in all cases: in vitro antibacterial MIC, agar plate dilution
Assay type in all cases: cell-based
[1] = tested on: Streptococcus faecalis VGH 84-69; conditions: Enterococcus faecalis, VGH8469, 18 h, 35° C., read-out: MIC
Method in brief: (§1)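 Agar plate dilution on Mueller-Hinton agar, inoculum approximately 10^4 CFU per organism applied with a Steers replicator. MIC (mcg/ml) is the lowest compound concentration inhibiting visible growth after 18 hours at 35° C.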

[2] = tested on: Pseudomonas aeruginosa VGH 84-4; conditions: Pseudomonas aeruginosa, VGH844, 18 h, 35° C., read-out: MIC
Method in brief: as §1

[3] = tested on: Streptococcus faecalis UCI 85-19; conditions: Enterococcus faecalis, UCI8519, 18 h, 35° C., read-out: MIC
Method in brief: as §1

[4] = tested on: Pseudomonas aeruginosa K 84-16; conditions: Pseudomonas aeruginosa, K8416, 18 h, 35° C., read-out: MIC
Method in brief: as §1

[5] = tested on: Pseudomonas aeruginosa VGH 84-3; conditions: Pseudomonas aeruginosa, VGH843, 18 h, 35° C., read-out: MIC
Method in brief: as §1

[6] = tested on: Serratia marcescens VGH 84-30; conditions: Serratia marcescens, VGH8430, 18 h, 35° C., read-out: MIC
Method in brief: as §1

[7] = tested on: Escherichia coli CMC 84-11; conditions: Escherichia coli, CMC8411, 18 h, 35° C., read-out: MIC
Method in brief: as §1

[8] = tested on: Morganella morganii VHG 84-12; conditions: Morganella morganii, VHG8412, 18 h, Morganella morganii VHG 84-12 (VGH 84-12 for Example 131), 35° C., read-out: MIC
Method in brief: as §1

[9] = tested on: Enterobacter cloacae K 84-10; conditions: Enterobacter cloacae, K8410, 18 h, 35° C., read-out: MIC
Method in brief: as §1

[10] = tested on: Serratia marcescens CMC 83-74; conditions: Serratia marcescens, CMC8374, 18 h, 35° C., read-out: MIC
Method in brief: as §1

[11] = tested on: Klebsiella pneumoniae MOR 84-24; conditions: Klebsiella pneumoniae, MOR8424, 18 h, 35° C., read-out: MIC
Method in brief: as §1

[12] = tested on: Staphylococcus aureus VGH 84-47; conditions: 35° C.
Method in brief: as §1

[13] = tested on: Streptococcus faecalis CMC 83-120; conditions: Enterococcus faecalis, CMC83120, 18 h, 35° C., read-out: MIC
Method in brief: as §1

Citrobacter div. K 82-24 = conditions: Citrobacter, DIV.K8224, 18 h, 35° C., read-out: MIC
Method in brief: as §1

[14] = tested on: Escherichia coli MOR 84-20; conditions: 35° C.
Method in brief: as §1

[15] = tested on: Enterobacter cloacae MOR 84-30; conditions: Enterobacter cloacae, MOR8430, 18 h, 35° C., read-out: MIC
Method in brief: as §1

[16] = tested on: Enterobacter cloacae VGH 84-39; conditions: Enterobacter cloacae, VGH8439, 18 h, 35° C., read-out: MIC
Method in brief: as §1

[17] = tested on: Providencia stuarti CMC 83-3; conditions: Providencia, CMC833, 18 h, 35° C., read-out: MIC
Method in brief: as §1

Escherichia coli LL 311 = conditions: Escherichia coli, LL311, 18 h, 35° C., read-out: MIC
Method in brief: as §1

[18] = tested on: Morganella morganii CMC 84-37; conditions: 35° C.
Method in brief: as §1

[19] = tested on: Escherichia coli VGH 84-19; conditions: 35° C.
Method in brief: as §1

[20] = tested on: Pseudomonas aeruginosa CMC 83-20; conditions: Pseudomonas aeruginosa, CMC8320, 18 h, 35° C., read-out: MIC
Method in brief: as §1

[21] = tested on: Streptococcus faecalis VGH 84-65; conditions: Enterococcus faecalis, VGH8465, 18 h, 35° C., read-out: MIC
Method in brief: as §1

[22] = tested on: Staphylococcus aureus CMC 83-131; conditions: Staphylococcus aureus, CMC83131, 18 h, 35° C., read-out: MIC
Method in brief: as §1

[23] = tested on: Staphylococcus aureus VGH 84-45; conditions: Staphylococcus aureus, VGH8445, 18 h, 35° C., read-out: MIC
Method in brief: as §1

[24] = tested on: Serratia marcescens K 84-18; conditions: Serratia marcescens, K8418, 18 h, 35° C., read-out: MIC
Method in brief: as §1

[25] = tested on: Proteus rettgeri IO 83-21; conditions: Providencia rettgeri, IO8321, 18 h, 35° C., read-out: MIC
Method in brief: as §1

[26] = tested on: Streptococcus faecalis UCI 85-30; conditions: Enterococcus faecalis, UCI8530, 18 h, 35° C., read-out: MIC
Method in brief: as §1

[27] = tested on: Staphylococcus aureus Smith; conditions: Staphylococcus aureus, 18 h, 35° C., read-out: MIC
Method in brief: as §1

[28] = tested on: Morganella morganii MOR 84-45; conditions: Morganella morganii, MOR8445, 18 h, 35° C., read-out: MIC
Method in brief: as §1

[29] = tested on: Proteus rettgeri CMC 84-41; conditions: Providencia rettgeri, CMC8441, 18 h, 35° C., read-out: MIC
Method in brief: as §1

[30] = tested on: Staphylococcus aureus K 82-26; conditions: Staphylococcus aureus, K8226, 18 h, 35° C., read-out: MIC
Method in brief: as §1

[31] = tested on: Klebsiella pneumoniae IO 83-5; conditions: Klebsiella pneumoniae, IO835, 18 h, 35° C., read-out: MIC
Method in brief: as §1

[32] = tested on: Escherichia coli CMC 84-50; conditions: Escherichia coli, CMC8450, 18 h, 35° C., read-out: MIC
Method in brief: as §1

[33] = tested on: Morganella morganii CMC 84-38; conditions: Morganella morganii, CMC8438, 18 h, 35° C., read-out: MIC
Method in brief: as §1

[34] = tested on: Pseudomonas aeruginosa LL-1244; conditions: Pseudomonas aeruginosa, LL1244, 18 h, 35° C., read-out: MIC
Method in brief: as §1

[35] = tested on: Serratia marcescens MOR 84-41; conditions: Serratia marcescens, MOR8441, 18 h, 35° C., read-out: MIC
Method in brief: as §1

[36] = tested on: Klebsiella pneumoniae CMC 84-31; conditions: Klebsiella pneumoniae, CMC8431, 18 h, 35° C., read-out: MIC
Method in brief: as §1

[37] = tested on: Escherichia coli ATCC 25922; conditions: 35° C.
Method in brief: as §1

MIC [1] [mg/L]	MIC [2] [mg/L]	MIC [3] [mg/L]	MIC [4] [mg/L]	MIC [5] [mg/L]	MIC [6] [mg/L]	MIC [7] [mg/L]	MIC [8] [mg/L]	MIC [9] [mg/L]	MIC [10] [mg/L]	MIC [11] [mg/L]	MIC [13] [mg/L]	MIC (Citrobacter div. K 82-24) [mg/L]	MIC [15] [mg/L]	MIC [16] [mg/L]	MIC [17] [mg/L]	MIC (Escherichia coli LL 311) [mg/L]	MIC [20] [mg/L]	MIC [21] [mg/L]	MIC [22] [mg/L]	Compound	also measured
4 (≈ 9.65 µM)	16 (≈ 38.6 µM)	4 (≈ 9.65 µM)	> 16	> 16	32 (≈ 77.2 µM)	0.5 (≈ 1.21 µM)	4 (≈ 9.65 µM)	2 (≈ 4.83 µM)	> 16	4 (≈ 9.65 µM)	4 (≈ 9.65 µM)	2 (≈ 4.83 µM)	8 (≈ 19.3 µM)	2 (≈ 4.83 µM)	> 16	0.5 (≈ 1.21 µM)	> 16	2 (≈ 4.83 µM)	0.5 (≈ 1.21 µM)	CCn1cc(C(=O)O)c(=O)c2cc(F)c(N3CCNC(c4ccncc4)C3)c(F)c21 (stereo not drawn) [Example 127]	MIC ([12]; Staphylococcus aureus, VGH8447, 18 h, read-out: MIC): 0.25 mg/L (≈ 0.603 µM); MIC ([14]; Escherichia coli, MOR8420, 18 h, read-out: MIC): 1 mg/L (≈ 2.41 µM); MIC ([18]; Morganella morganii, CMC8437, 18 h, read-out: MIC): 0.5 mg/L (≈ 1.21 µM); MIC ([19]; Escherichia coli, VGH8419, 18 h, read-out: MIC): 1 mg/L (≈ 2.41 µM); MIC [23]: 0.12 mg/L (≈ 0.29 µM); MIC [24]: 1 mg/L (≈ 2.41 µM); MIC [25]: 4 mg/L (≈ 9.65 µM); MIC [26]: 8 mg/L (≈ 19.3 µM); MIC [27]: 0.06 mg/L (≈ 0.145 µM); MIC [28]: 2 mg/L (≈ 4.83 µM); MIC [29]: 1 mg/L (≈ 2.41 µM); MIC [30]: 8 mg/L (≈ 19.3 µM); MIC [31]: 4 mg/L (≈ 9.65 µM); MIC [32]: 2 mg/L (≈ 4.83 µM); MIC [33]: 2 mg/L (≈ 4.83 µM); MIC [34]: 16 mg/L (≈ 38.6 µM); MIC [35]: 4 mg/L (≈ 9.65 µM); MIC [36]: 2 mg/L (≈ 4.83 µM)
4 (≈ 9.79 µM)	8 (≈ 19.6 µM)	2 (≈ 4.9 µM)	16 (≈ 39.2 µM)	> 16	8 (≈ 19.6 µM)	0.06 (≈ 0.147 µM)	1 (≈ 2.45 µM)	0.12 (≈ 0.294 µM)	> 16	1 (≈ 2.45 µM)	4 (≈ 9.79 µM)	0.25 (≈ 0.612 µM)	1 (≈ 2.45 µM)	0.5 (≈ 1.22 µM)	> 16	0.06 (≈ 0.147 µM)	16 (≈ 39.2 µM)	1 (≈ 2.45 µM)	0.5 (≈ 1.22 µM)	O=C(O)c1cn(C2CC2)c2cc(N3CCNC(c4ccccn4)C3)c(F)cc2c1=O (stereo not drawn) [Example 128, 1-Cyclopropyl-6-fluoro-1.4-dihydro-4-oxo-7-[3-(2-pyridinyl) -1-piperazinyl]-3-quinolinecarboxylic acid]	MIC ([12]; 18 hours): 0.25 mg/L (≈ 0.612 µM); MIC ([14]; 18 hours): 0.25 mg/L (≈ 0.612 µM); MIC ([18]; 18 hours): 0.25 mg/L (≈ 0.612 µM); MIC ([19]; 18 hours): 0.25 mg/L (≈ 0.612 µM); MIC [23]: 0.06 mg/L (≈ 0.147 µM); MIC [24]: 0.5 mg/L (≈ 1.22 µM); MIC [25]: 1 mg/L (≈ 2.45 µM); MIC [26]: 8 mg/L (≈ 19.6 µM); MIC [27]: 0.06 mg/L (≈ 0.147 µM); MIC [28]: 0.5 mg/L (≈ 1.22 µM); MIC ([37]; 18 hours): 0.06 mg/L (≈ 0.147 µM); MIC ([37]; Escherichia coli, ATCC25922, 18 h, read-out: MIC): 0.03 mg/L (≈ 0.0735 µM); MIC [29]: 0.12 mg/L (≈ 0.294 µM); MIC [30]: 4 mg/L (≈ 9.79 µM); MIC [31]: 1 mg/L (≈ 2.45 µM); MIC [32]: 0.5 mg/L (≈ 1.22 µM); MIC [33]: 0.5 mg/L (≈ 1.22 µM); MIC [34]: 8 mg/L (≈ 19.6 µM); MIC [35]: 1 mg/L (≈ 2.45 µM); MIC [36]: 0.5 mg/L (≈ 1.22 µM)
